Data: patent publication US9289425B2, “Intranasal naloxone compositions and methods of making and using same” (priority 2013, dated 2016)
Structures can show the parent of a compound that is named as a salt. Where two headings read alike, the source gives them in different places.

Experiments:
[1] = cited from earlier work
[2] = Physicochemical properties of naloxone stated in the description; conditions: pH of about 5.5 to 6.5
Excerpt: Specifically, naloxone is known to have a pKa of about 8. For nasal formulations, wherein transmucosal delivery is desired, it is generally considered advantageous, if not necessary, to ensure that an active agent is primarily in an un-ionized state, as unionized species pass through membranes more easily than ionized species. […] The nasal mucosal is at a pH of about 5.5 to 6.5, a pH at which Applicant has found naloxone is unstable.
Naloxone prevents or reverses the effects of opioids including respiratory depression, sedation and hypotension. Also, it can reverse the psychotomimetic and dysphoric effects of agonist-antagonists such as pentazocine. […] In the presence of physical dependence on opioids, naloxone will produce withdrawal symptoms. However, in the presence of opioid dependence, withdrawal symptoms will appear within minutes of naloxone administration and will subside in about 2 hours. The severity and duration of the withdrawal syndrome are related to the dose and route of administration of naloxone and to the degree and type of dependence.

In the case of `C=CCN1CC[C@]23c4c5ccc(O)c4O[C@H]2C(=O)CC[C@@]3(O)[C@H]1C5` [naloxone, 17-allyl-4,5α-epoxy, 3-14-dihydroxymorphinan-6-one hydrochloride], the pKa [1] is given as “about 8”, the solubility ([1]; in alcohol) is given as “slightly soluble” and the solubility ([1]; in ether and in chloroform) is given as “practically insoluble”. The solubility ([1]; in water, in dilute acids, and in strong alkali) was “soluble” and the “stability versus pH” value [2] was “unstable”.
